The source of these data is patent publication US7105730B1, “Nucleic acid molecules and other molecules associated with sterol synthesis and metabolism” (Monsanto Technology L.L.C., priority 1999, dated 2006).

The assay relates to HES1 (YOR237W) transcript in wild type yeast LPY9. The experiment in a line: Yeast transcript profiling by array hybridization after ketoconazole treatment. The settings on record: yeast LPY9, array of yeast ORF sequences; SEQ ID NO: 5. The format is cell-based, Saccharomyces cerevisiae. As to the method:
The yeast strain LPY9 (MATa, leu2, Ura3, his3) is grown overnight and inoculated into SD+ hul (histidine, uracil, leucine) media. Aliquots of the culture are treated with ketoconazole (an inhibitor of C-14α demethylase (P45014DM) enzyme) at 10 ug/ml, 50 ug/ml, and […], respectively. A sample of each is collected at 2, 4, and 6 hours after treatment. Control samples treated with DMSO (dimethyl sulfoxide-solvent for ketoconazole) but not with ketoconazole are also collected. Total RNA from each sample is collected by conventional methods, such as a Zirconium/Silica bead binding and extraction method. The sequence content of each sample is analyzed and compared by hybridizing each of them to a number of yeast ORF sequences immobilized on a Nylon membrane in an array format.
Using this method, over 600 RNA transcripts levels are shown to be altered.

For `CC(=O)N1CCN(c2ccc(OCC3COC(Cn4ccnc4)(c4ccc(Cl)cc4Cl)O3)cc2)CC1` (stereo not shown) [ketoconazole], the “Effect of ketoconazole addition on yeast HES1 transcript level” value is “particularly effected”.
